Source: ChEMBL document CHEMBL5137136, “A Cytotoxic Heterodimeric Cyclic Diarylheptanoid with a Rearranged Benzene Ring from the Seagrass Zostera marina” (J Nat Prod, 2022)
pIC50: −log10 of the molar value. Calls of active or inactive are those of the source. The rule behind the calls is not given here.

Assays:
HCT-116 [1] = experiment: Cytotoxicity against human HCT-116 cells assessed as reduction in cell viability incubated for 48 hrs by MTT assay; assay type: functional, cell-based; conditions: HCT-116, 48 h
HCT-116 [2] = experiment: Induction of morphological changes in human HCT-116 cells at 10 uM incubated for 48 hrs by phase contrast microscopy analysis; assay type: functional, cell-based
HCT-116 [3] = experiment: Cytotoxicity against human HCT-116 cells assessed as cell growth inhibition at 10 uM incubated for 48 hrs by MTT assay relative to control; assay type: functional
HCT-116 [4] = experiment: Cytotoxicity against human HCT-116 cells assessed as reduction in cell viability at 10 uM incubated for 48 hrs by MTT assay relative to control; assay type: functional

Compound | pIC50 (HCT-116 [1]) | Activity (HCT-116 [2]) | inhibition at 10 µM (HCT-116 [3]) | Activity (HCT-116 [4])
COc1cc2c3c(c1O)-c1cc(ccc1O)CC/C=C\[C@@H]3C([C@@H]1C3=CC(=O)[C@]14C(=O)Oc1ccc(cc14)CC/C=C\C=C\C3)=C2 | 5.12 | Active | 73% | 
COc1cc2c3c(c1O)-c1cc(ccc1O)CC/C=C\[C@@H]3C([C@@H]1C3=CC(=O)[C@@]4(O)Oc5ccc(cc5[C@@H]14)CC/C=C\C=C\C3)=C2 |  |  | 23% | 
COc1cc(O)c2cc1CC/C=C\C=C\CC1=C(O)C(=O)C=C(O2)[C@H]1C1=Cc2cc(OC)c(O)c3c2[C@@H]1/C=C\CCc1ccc(O)c-3c1 | 5.44 |  |  | 97%
